From patent US10793568B2, “Hormone receptor modulators for treating metabolic conditions and disorders” (ARDELYX, INC., priority 2016, dated 2020)

What was measured:
DSS colitis mice = experiment: Restoration of epithelial barrier integrity in DSS colitis; assay type: in vivo, C57Bl/6 mice; details: 30 mg/kg once daily oral gavage
Procedure: Colonic histopathology was assessed in mice administered dextran sodium sulfate (DSS) to assess the ability of selected example compounds to restore epithelial barrier integrity in a model of colitis presenting with epithelial erosions. Approximately seven-week old, female, C57Bl/6 mice were purchased from Envigo (Livermore, Calif.), were housed 6 per cage and acclimated for at least 2 weeks before study initiation. Animals were fed standard laboratory rodent chow Harlan Teklad Global 2018 (Maddison, Wis.). Mice had ad libitum access to food and water for the duration of the study and were maintained in a temperature and humidity controlled room on a standard light/dark cycle of 6 AM to 6 PM. DSS was prepared at 1.5% (MW 35-50 kDa, Lot # M7191, MP Biomedical) in filtered drinking water and provided to the mice from Day 0 to Day 7 (n=12/group). The DSS water was replaced once during the study on Day 3 or 4 with fresh DSS water. One cohort of mice (n=6) was provided drinking water without DSS and severed as the non-diseased control group. Vehicle (1% methylcellulose in water, 10 mL/kg) or varying doses of test compound were administered once daily by oral gavage beginning on Day −3 through Day 8. FXR agonist compounds of the invention, FXR1 and FXR2, were tested at doses of 0.3 and 1 mg/kg and compared to known FXR agonist obeticholic acid (OCA) administered at 30 mg/kg. Body weight and food and water intake were measured daily from the initiation of DSS administration. Disease activity index (DAI) scoring was performed on Day 9 prior to necropsy. Stool consistency, blood in stool, incidence of rectal prolapse, and body condition was assessed according to the scoring system in Table 25 and summed to a total DAI score:
Following DAI scoring on Day 9 and under isoflurane anesthesia mice were exsanguinated via cardiac puncture and euthanized by thoracotomy, followed by cervical dislocation. The entire colon (from the cecum to the anus) was removed, and the length recorded. The luminal contents were removed by flushing with ice-cold PBS using a blunt needle attached to a syringe and the colon was blotted dry and weighed. For each treatment group, half of the distal colon samples were prepared for cytokine analysis and half were prepared for histological evaluation. For cytokine measurement, the distal ⅓ of the colon was excised and weighed, placed into 5 mL Eppendorf tubes, frozen on dry ice and stored at −80° C., until analysis. Inflammatory cytokines were measured in colon tissue using a V-Plex custom kit (Proinflammatory Panel 1 (mouse), Mesoscale Technology). For histology, the colon was rolled by grasping the distal end and rotating to generate a spiral with a third dimension. The colon was then placed in a tissue cassette, and into a jar of 10/o buffered formalin phosphate at room temperature for at least 24 hours to ensure tissue fixation, at which point the formalin was replaced with 70% ethanol. […] Three levels of the distal colon were assigned a colitis score and the average colitis score for each animal was derived by summing the colitis scores for the three levels of colon evaluated and dividing the sum by three. The average colitis score for each treatment group was derived by summing the colitis scores for all levels of colon evaluated in the group and dividing the sum by the total number of levels of colon evaluated for that group. The presence or absence of mucosal defects (erosions or ulcerations) was also recorded for each level of colon. […]

[1] = biological target: human Farnesoid X receptor ligand-binding domain/Gal4 DNA binding domain chimera (Homo sapiens (Human), UniProt Q96RI1); experiment: Cell-based assay of FXR activation (FXR-UAS-bla HEK 293T beta-lactamase reporter); details: cellular FXR beta-lactamase reporter assay; for Emax: HEK-293T, extent of activation relative to GW4064, read-out: % Efficacy; for EC50: FXR-UAS-bla HEK 293T cells, 16 h, pEC50 = -log EC50
human Farnesoid X receptor ligand-binding domain/Gal4 DNA binding domain chimera, sequence (Q96RI1 262-486, change not shown): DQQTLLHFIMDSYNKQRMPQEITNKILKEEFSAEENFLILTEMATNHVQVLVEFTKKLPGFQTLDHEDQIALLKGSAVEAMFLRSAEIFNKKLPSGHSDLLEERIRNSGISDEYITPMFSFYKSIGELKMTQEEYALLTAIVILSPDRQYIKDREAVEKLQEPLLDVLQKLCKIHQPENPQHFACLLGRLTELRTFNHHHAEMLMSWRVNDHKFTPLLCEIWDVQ
human Farnesoid X receptor ligand-binding domain/Gal4 DNA binding domain chimera, sequence (P04386 1-147 partner): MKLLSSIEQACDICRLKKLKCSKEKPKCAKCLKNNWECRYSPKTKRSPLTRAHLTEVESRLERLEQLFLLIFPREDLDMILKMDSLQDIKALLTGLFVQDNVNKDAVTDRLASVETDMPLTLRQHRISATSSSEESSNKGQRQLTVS
In short: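 Readout is cleavage of the CCF4 FRET substrate (409 nm excitation, blue 447 nm signal) by beta-lactamase, expressed under UAS control after a Gal4–human FXR LBD chimera is activated in HEK 293T cells. Compounds were added as 3-fold dilutions for 16 h at 37 °C in 2% charcoal-stripped FBS medium. Curves were fit to a 3-parameter logistic equation to give pEC50, with % activation relative to GW4064.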

[2] = biological target: ligand binding domain of human FXR (Homo sapiens (Human), UniProt Q96RI1); experiment: FXR ligand binding assay (LanthaScreen TR-FRET, SRC2-2 peptide recruitment); details: for pEC50: -log EC50, concentration required to produce 50% activation; for Emax: extent of activation relative to GW4064, read-out: % Efficacy
ligand binding domain of human FXR, sequence (Q96RI1 262-486): as the sequence (Q96RI1 262-486, change not shown) above

SMILES | DAI score (DSS colitis mice; Day 9, vs DSS vehicle) | body weight (DSS-induced reduction) (DSS colitis mice; vs DSS vehicle) | epithelial erosions (mucosal defects) observed histologically (DSS colitis mice; vs DSS vehicle) | histology colitis score (DSS colitis mice; vs DSS vehicle) | inflammatory cytokines IL-6, IL-1β, TNFα, IFNγ and KC/Gro in the colon (DSS colitis mice; vs DSS vehicle) | Emax [1] [%] | EC50 [1] [nM] | pEC50 [2] | Emax [2] [%]
CC[C@H]1[C@@H](O)[C@@H]2[C@H](CC[C@]3(C)[C@@H]([C@H](C)CCC(=O)O)CC[C@@H]23)[C@@]2(C)CC[C@@H](O)C[C@@H]12 [OCA, obeticholic acid] | did not significantly affect body weight nor DAI score | did not significantly affect body weight | did not reduce the number of epithelial erosions | did not significantly affect histology colitis score | only significantly reduced the levels of IL-1β, TNFα and KC/Gro | – | – | – | –
O=C(O)c1ccc(N2C[C@@H]3C[C@H]2C[C@H]3OCc2c(-c3c(Cl)cccc3Cl)noc2C2CC2)c(C(F)(F)F)c1 [Compound I-106, 4-((1S,4S,5R)-5-((5-cyclopropyl-3-(2,6-dichlorophenyl)isoxazol-4-yl)methoxy)-2-azabicyclo[2.2.1]heptan-2-yl)-3-(trifluoromethyl)benzoic acid] | – | – | – | – | – | 106 | 0.631 | 8.6 | 126
Cc1cc(C(=O)O)cc2sc(N3C[C@@H]4C[C@H]3C[C@H]4OCc3c(-c4c(F)cccc4Cl)noc3C3CC3)nc12 [Compound I-262, 2-[(1S,4S,5R)-5-{[3-(2-chloro-6-fluorophenyl)-5-cyclopropyl-1,2-oxazol-4-yl]methoxy}-2-azabicyclo[2.2.1]heptan-2-yl]-4-methyl-1,3-benzothiazole-6-carboxylic Acid] | – | – | – | – | – | 114 | 2 | 8.6 | 144
FC(F)(F)Oc1cc(-c2nn[nH]n2)cc2sc(N3C[C@@H]4C[C@H]3C[C@H]4OCc3c(-c4c(Cl)cccc4Cl)noc3C3CC3)nc12 [Compound I-27, 2-[(1S,4S,5R)-5-{[5-cyclopropyl-3-(2,6-dichlorophenyl)-1,2-oxazol-4-yl]methoxy}-2-azabicyclo[2.2.1]heptan-2-yl]-4-trifluoromethoxy-6-(2H-1,2,3,4-tetrazol-5-yl)-1,3-benzothiazole] | – | – | – | – | – | 94 | 2 | – | 130
O=C(O)c1ccc(N2C[C@@H]3C[C@H]2C[C@H]3OCc2c(-c3c(Cl)cccc3Cl)noc2C2CC2)cc1 [Compound I-52, 4-[(1S,4S,5R)-5-[[5-cyclopropyl-3-(2,6-dichlorophenyl)-1,2-oxazol-4-yl]methoxy]-2-azabicyclo[2.2.1]heptan-2-yl]benzoic acid] | – | – | – | – | – | 111 | 1 | 8.8 | 148
O=C(O)CCCc1ccc(N2C[C@@H]3C[C@H]2C[C@H]3OCc2c(-c3c(Cl)cccc3Cl)noc2C2CC2)c(F)c1 [Compound I-157, 4-{4-[(1S,4S,5R)-5-{[5-cyclopropyl-3-(2,6-dichlorophenyl)-1,2-oxazol-4-yl]methoxy}-2-azabicyclo[2.2.1]heptan-2-yl]-3-fluorophenyl}butanoic Acid] | – | – | – | – | – | 100 | 2.51 | 8.2 | 134
Cc1cccc(Cl)c1-c1noc(C2CC2)c1CO[C@@H]1C[C@@H]2C[C@H]1CN2c1ccc(CCC(=O)NS(C)(=O)=O)cc1F [Compound I-241, 3-(4-((1S,4S,5R)-5-((3-(2-chloro-6-methylphenyl)-5-cyclopropylisoxazol-4-yl)methoxy)-2-azabicyclo[2.2.1]heptan-2-yl)-3-fluorophenyl)-N-(methylsulfonyl)propanamide] | – | – | – | – | – | 98 | 10 | 8 | 176
Cc1cccc(Cl)c1-c1noc(C2CC2)c1CO[C@@H]1C[C@@H]2C[C@H]1CN2c1ccc(CCC(=O)NS(=O)(=O)C2CC2)cc1F [Compound I-242, 3-(4-((1S,4S,5R)-5-((3-(2-chloro-6-methylphenyl)-5-cyclopropylisoxazol-4-yl)methoxy)-2-azabicyclo[2.2.1]heptan-2-yl)-3-fluorophenyl)-N-(cyclopropylsulfonyl)propanamide] | – | – | – | – | – | 97 | 10 | 8.2 | 182
CCCCCS(=O)(=O)NC(=O)c1ccc(N2C[C@@H]3C[C@H]2C[C@H]3OCc2c(-c3c(Cl)cccc3Cl)noc2C2CC2)c(F)c1 [Compound I-191, 4-((1S,4S,5R)-5-((5-cyclopropyl-3-(2,6-dichlorophenyl)isoxazol-4-yl)methoxy)-2-azabicyclo[2.2.1]heptan-2-yl)-3-fluoro-N-(pentylsulfonyl)benzamide] | – | – | – | – | – | 111 | 0.0398 | 8.4 | 163
O=C(NS(=O)(=O)CCC1CCOC1)c1ccc(N2C(=O)[C@@H]3C[C@H]2C[C@H]3OCc2c(-c3c(Cl)cccc3Cl)noc2C2CC2)cc1 (stereo partly drawn) [Compound I-342, 4-((1S,4R,5R)-5-((5-cyclopropyl-3-(2,6-dichlorophenyl)isoxazol-4-yl)methoxy)-3-oxo-2-azabicyclo[2.2.1]heptan-2-yl)-N-((2-(tetrahydrofuran-3-yl)ethyl)sulfonyl)benzamide] | – | – | – | – | – | 125 | 31.6 | 8.6 | 139
O=C(O)c1ccc(N2C[C@@H]3C[C@H]2C[C@H]3OC(=O)c2c(-c3c(Cl)cccc3Cl)noc2C2CC2)cc1 [Compound I-42, 4-[(1S,4S,5R)-5-[5-cyclopropyl-3-(2,6-dichlorophenyl)-1,2-oxazole-4-carbonyloxy]-2-azabicyclo[2.2.1]heptan-2-yl]benzoic Acid] | – | – | – | – | – | 110 | 39.8 | 7.6 | 166
Cc1cc(C(=O)O)cc2sc(N3C[C@@H]4C[C@H]3C[C@H]4OC(=O)c3c(-c4c(Cl)cccc4Cl)noc3C3CC3)nc12 [Compound I-3, 2-[(1S,4S,5R)-5-[5-cyclopropyl-3-(2,6-dichlorophenyl)-1,2-oxazole-4-carbonyloxy]-2-azabicyclo[2.2.1]heptan-2-yl]-4-methyl-1,3-benzothiazole-6-carboxylic acid] | – | – | – | – | – | 123 | 5.01 | 7.6 | 153
O=C(O)C1CCc2cc(N3C(=O)[C@@H]4C[C@H]3C[C@H]4OCc3c(-c4c(Cl)cccc4Cl)noc3C3CC3)ccc21 (stereo partly drawn) [Compound I-312, 5-[(1S,4R,5R)-5-{[5-cyclopropyl-3-(2,6-dichlorophenyl)-1,2-oxazol-4-yl]methoxy}-3-oxo-2-azabicyclo[2.2.1]heptan-2-yl]-2,3-dihydro-1H-indene-1-carboxylic Acid] | – | – | – | – | – | 134 | 20 | 7 | 149
